Entries after “also recorded” stand apart in the source; their conditions may differ. Read-outs that look alike come from different tables or passages of the source.
Assays:
PDK1 = molecular target: T1, PDK1 (Homo sapiens, UniProt O15530); assay: Thermo Fisher "PDK1 Direct" assay (peptide Ser/Thr 07, FRET readout); assay type: biochemical
T1 sequence (O15530 1-556): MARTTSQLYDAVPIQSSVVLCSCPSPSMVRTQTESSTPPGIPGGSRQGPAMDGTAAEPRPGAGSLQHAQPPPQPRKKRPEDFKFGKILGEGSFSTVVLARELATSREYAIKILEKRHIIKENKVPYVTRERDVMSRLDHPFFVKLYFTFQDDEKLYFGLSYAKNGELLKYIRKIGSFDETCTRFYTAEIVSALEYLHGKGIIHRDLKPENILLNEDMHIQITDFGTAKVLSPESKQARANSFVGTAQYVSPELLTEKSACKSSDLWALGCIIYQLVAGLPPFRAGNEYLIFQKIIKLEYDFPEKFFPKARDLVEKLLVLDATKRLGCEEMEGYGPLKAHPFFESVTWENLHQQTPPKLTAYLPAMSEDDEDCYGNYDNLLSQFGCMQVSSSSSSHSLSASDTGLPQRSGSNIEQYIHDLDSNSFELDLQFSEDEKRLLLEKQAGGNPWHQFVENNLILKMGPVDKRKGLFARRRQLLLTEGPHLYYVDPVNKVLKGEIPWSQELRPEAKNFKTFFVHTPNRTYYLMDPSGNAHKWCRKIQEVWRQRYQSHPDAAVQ

[1] = molecular target: T2, His-PDK1_1-556 and GST-PDK1_360-556 (Homo sapiens, UniProt O15530); assay: AlphaScreen PDK1 dimerization assay His-PDK1_1-556 / GST-PDK1_360-556; assay type: binding
T2 construct: made in house; host or cells: Sf9 insect cells (His-PDK1_1-556); HEK293 cells (GST-PDK1_360-556)
T2 sequence (O15530 1-556): T1 sequence (O15530 1-556)
Protocol: The AlphaScreen® assay was performed following the general guidelines from the manufacturer (Perkin Elmer) ([29]). In short, the assay was performed in a final volume of 25 μl in white 384-well microtiter plates (Greiner) in a standard buffer containing 50 mM Tris-HCl (pH 7.4), 100 mM NaCl, 2 mM DTT, 0.01% (v/v) Tween-20 and 0.1% (w/v) BSA, with the addition of 5 μl of beads (anti-GST coated acceptor beads and streptavidin-coated donor beads; nickel chelate-coated acceptor beads and streptavidin-coated donor beads; or nickel chelate-coated acceptor beads and GSH-coated donor beads, 20 μg/ml final concentrations for each bead type). AlphaScreen assays for His-tagged proteins and GST-fusion proteins were performed using nickel chelate-coated acceptor beads and GSH-coated donor beads; alphascreen assays for His-tagged proteins and biotinylated molecules were performed using nickel chelate-coated acceptor beads and streptavidin-coated donor beads; alphascreen assays for GST-fusion proteins and biotinylated molecules were performed using anti-GST coated acceptor beads and streptavidin-coated donor beads (Perkin Elmer).
The conditions for each AlphaScreen assay were identified in cross-titration experiments for each interaction to choose the ideal pair of concentrations within the linear range of the interactions. […] His-PDK1 and GST-fusion protein in the presence or absence of the different compounds were incubated in the dark for 60 min at room temperature and the emission of light from the acceptor beads was measured in an EnVision reader (Perkin Elmer) or Spark plate reader (Tecan). […]

PDK1_1-556 = molecular target: T3, PDK1_1-556 (Homo sapiens, UniProt O15530); assay: Differential scanning fluorimetry, thermal stability of PDK1_1-556; assay type: binding; conditions: PDK1 1 μM
T3 construct: effect of HYG8 on the thermal stability (ΔTm) of PDK1_1-556 (H) and PDK1_50-359 (I); His (N); made in house; host or cells: Sf9 insect cells (baculovirus)
T3 sequence (O15530 1-556): T1 sequence (O15530 1-556)
Protocol: The thermal stability of PDK1 was assessed by monitoring the unfolding of PDK1 by the increase in the fluorescence of SYPRO Orange (Invitrogen) using a real-time PCR device (StepOnePlus, Applied Biosystems and BioRad CFX96) following a previously described protocol ([70]). The reactions were performed in a final volume of 10 μl in white 96-well PCR microtiter plates (Greiner) and contained 1 μM PDK1, 10 mM HEPES (pH 7.5), 150 mM NaCl, 1/1000 SYPRO Orange and 1 mM dithiothreitol. For valsartan, the assay buffer was modified to exclude NaCl. PIFtide or compounds (at a final DMSO concentration of 1%) were added to this reaction mixture. The temperature gradient was performed in steps of 0.3 °C in the range from 25 to 70 °C. To calculate the Tm values, data were exported to GraphPad Prism and curves fitted to a Boltzmann sigmoidal equation with an acceptable confidence interval of 95%. Statistical analysis was performed with Infostat software (http://www.infostat.com.ar) and GraphPad Prism by first verifying a normal distribution of pooled residuals (Shapiro-Wilks test) and homogeneity of variance (F test), and then performing a one-way ANOVA followed by the post hoc comparisons test indicated in each figure legend.

[2] = replicate point 1, read-out: % Inhibition Point 1
[3] = replicate point 2, read-out: % Inhibition Point 2
[4] = single point, N=2, read-out: Inhibition at 1 μM (%)
[5] = absence of PIFtide, read-out: IC50 (nM), displacement of His-PDK1_1-556 interaction with GST-PDK1_360-556
[6] = with PIFtide, read-out: IC50 (nM), displacement of His-PDK1_1-556 interaction with GST-PDK1_360-556 with PIFtide

## O=P(O)(O)O[C@@H]1[C@@H](OP(=O)(O)O)[C@H](OP(=O)(O)O)[C@H](O)[C@H](OP(=O)(O)O)[C@H]1OP(=O)(O)O [IP5, inositol-1,3,4,5,6-pentaphosphate, reference compound]
PDK1; [2]
  inhibition at 1 µM: 63%
PDK1; [3]
  inhibition at 1 µM: 69%
PDK1; [4]
  inhibition at 1 µM: 66%
PDK1; 10-point titration
  Hill slope, PDK1 direct: 1.33
  IC50: 577 nM
PDK1; PDK1 Direct assay IC50 comparison
  times less potent inhibitors than HYG7, HYG8 and HYG14: 15 to 36 times
[1]; [5]
  IC50: 67 nM
[1]; [6]
  IC50: 59.4 nM
PDK1_1-556; compound 1 µM
  Tm (°C), temperature stabilization of PDK1_1-556: 5.3 °C
PDK1_1-556; compound 20 µM
  Tm (°C), temperature stabilization of PDK1_1-556: 11.9 °C

## O=P(O)(O)O[C@H]1[C@H](OP(=O)(O)O)[C@@H](OP(=O)(O)O)[C@H](OP(=O)(O)O)[C@@H](OP(=O)(O)O)[C@H]1OP(=O)(O)O [IP6, inositol hexakisphosphate, reference compound]
PDK1; [2]
  inhibition at 1 µM: 8%
PDK1; [3]
  inhibition at 1 µM: 7%
PDK1; [4]
  inhibition at 1 µM: 8%
PDK1; 10-point titration
  Hill slope, PDK1 direct: –2.18
  IC50: > 10000 nM
  IC50 (nM), PDK1 direct: inactive
[1]; absence of PIFtide
  IC50 (nM), displacement of His-PDK1_1-556 interaction with GST-PDK1_360-556: Does not reach complete displacement; also recorded: no displacement
[1]; with PIFtide
  IC50 (nM), displacement of His-PDK1_1-556 interaction with GST-PDK1_360-556 with PIFtide: Does not reach complete displacement
PDK1_1-556; compound 1 µM
  Tm (°C), temperature stabilization of PDK1_1-556: 6.2 °C
PDK1_1-556; compound 20 µM
  Tm (°C), temperature stabilization of PDK1_1-556: 9.0 °C

## O=C(CC(c1ccccc1)C(C(=O)O)C(=O)O)c1ccc(C(F)(F)F)cc1 (centres unmarked) [PS210]
[1]
  effect on PDK1 dimer formation: None of these compounds affected the dimerization

## CN[C@@H]1C[C@H]2O[C@@](C)([C@@H]1OC)n1c3ccccc3c3c4c(c5c6ccccc6n2c5c31)C(=O)N[C@H]4O [UCN01]
[1]
  effect on PDK1 dimer formation: do not affect the formation of PDK1 dimers

## Nc1ncnc2[nH]cnc12 [adenine]
[1]
  effect on PDK1 dimer formation: do not affect the formation of PDK1 dimers

## O=P(O)(O)O[C@@H]1[C@@H](OP(=O)(O)O)[C@H](OP(=O)(O)O)[C@@H](O)[C@H](OP(=O)(O)O)[C@H]1OP(=O)(O)O [scyllo-IP5, reference compound]
PDK1; [2]
  inhibition at 1 µM: -8%
PDK1; [3]
  inhibition at 1 µM: -10%
PDK1; single point, N=2
  Inhibition at 1 μM (%): -9%
PDK1; single point, N=2, listed as Scyllo-IP5, 1 µM
  Inhibition at 1 μM (%): ≤ 10%
[1]; [5]
  IC50: 124 nM
[1]; [6]
  IC50: 140 nM
PDK1_1-556; compound 1 µM
  Tm (°C), temperature stabilization of PDK1_1-556: 4.7 °C
PDK1_1-556; compound 20 µM
  Tm (°C), temperature stabilization of PDK1_1-556: 7.3 °C

## REPRILSEEEQEMFRDFDYIADWS [PIFtide, peptide derived from the PRK2 HM (a PDK1 substrate)]
[1]
  effect on PDK1 dimer formation: no effect on dimer formation

— publication PMC7614687, “Modulation of the substrate specificity of the kinase PDK1 by distinct conformations of the full-length protein*” (Science signaling, 2023)
